Consider 7 compounds from patent US12721844B2, “Chronic kidney disease treatment or prevention method” (Japan Tobacco Inc., priority 2019, dated 2026).

Holding throughout (type): cell-based
Data set [1] concerns Escherichia coli WP2 uvrA. The experiment in a line: Ames test (reverse mutation test), WP2 uvrA. The following applies: S9 Mix −. An excerpt:
(§1) Ames Test (Reverse Mutation Test)
(§2) Two plates per treatment were used.

Data set [2] has as its system Salmonella typhimurium TA98. The experiment in a line: Ames test (reverse mutation test), TA98. The following applies: with S9 mix.
From the text: as §1, §2
In general terms: The Ames test uses bacterial strains that need an amino acid and regain growth without it when mutated back.

In data set [3] the test system is Salmonella typhimurium TA1535. The experiment in a line: Ames test (reverse mutation test), TA1535.
From the text: as §1, §2

The subject of data set [4] is Salmonella typhimurium TA1537. The experiment in a line: Ames test (reverse mutation test), TA1537.
From the text: as §1, §2

Data set [5] deals with Salmonella typhimurium TA100. As to the kind of experiment: Ames test (reverse mutation test), TA100. The note with it: with S9 mix.
From the text: as §1, §2

The mark [6] stands for this setting: with S9 mix, dose 1667 μg/plate.
Where [7] appears, read: with S9 mix, dose 5000 μg/plate.

Values joined by “and” are separate entries in the source; they are usually repeats but may differ in a detail not shown here. Identical values can stand only once.

Turning to `NC(=O)C(=Cc1ccc([N+](=O)[O-])o1)c1ccco1` [AF-2, 2-(2-Furyl)-3-(5-nitro-2-furyl)acrylamide, reference compound], in data set [1] (0.01 μg/plate), the “Number of revertant colonies WP2uvrA” value is 74 and 89 and 100 and 87 and 79.
Take `Nc1ccc2cc3ccccc3cc2c1` [Example 2AA, 2-Aminoanthracene, reference compound]: in data set [2] (dose 0.5 μg/plate (positive control)), the “Number of revertant colonies TA98” value stood at 289. In addition, the “Number of revertant colonies TA1535” value was 332 and 308 and 331 and 261 and 349 in data set [3] (S9 Mix +, 2.0 μg/plate); 223 and 146 and 250 in data set [3] (with S9 mix, dose 2.0 (2) μg/plate (positive control)). For the same compound, the “Number of revertant colonies TA1537” value in data set [4] (with S9 mix, dose 2 μg/plate (positive control)) worked out at 135.
With `Cl.Nc1c2ccccc2nc2ccccc12.O` [Example 9AA, 9-Aminoacridine hydrochloride monohydrate, reference compound], the “Number of revertant colonies TA1537” value in data set [4] (without S9 mix, dose 80 μg/plate (positive control)) stood at 372.
Regarding `CC(C)(C)Oc1cccc(-c2cc(N)nn2-c2ccccc2)c1` [Metabolite C], the “potential to induce reverse mutations, TA100” value (“potential … TA100” for short) in data set [5] is recorded as “showed potential to induce reverse mutations”. The “potential to induce reverse mutations, TA98” value (“potential … TA98” below) in data set [2] is reported as “showed potential to induce reverse mutations”. The “Number of revertant colonies TA1535” value came out at 6 in data set [3] (S9 Mix −, 2.3 μg/plate); 5 in data set [3] (S9 Mix −, 6.9 μg/plate); 6 in data set [3] (S9 Mix −, 21 μg/plate); 3 in data set [3] (S9 Mix −, 62 μg/plate); 4 in data set [3] (S9 Mix −, 185 μg/plate); 0 in data set [3] (S9 Mix −, 556 μg/plate). In addition, the “Number of revertant colonies TA1535” value in data set [3] (S9 Mix −, 1667 μg/plate) is on record as 1; in data set [3] (S9 Mix −, 5000 μg/plate), 0; in data set [3] (with S9 mix, dose 2.3 μg/plate), 8; in data set [3] (with S9 mix, dose 6.9 μg/plate) it was 8; in data set [3] (with S9 mix, dose 21 μg/plate), 5; in data set [3] (with S9 mix, dose 62 μg/plate), 4. Moreover, the “Number of revertant colonies TA1535” value was determined as 5 in data set [3] (with S9 mix, dose 185 μg/plate); 4 in data set [3] (with S9 mix, dose 556 μg/plate); 5 in data set [3] (setting [6]); 4 in data set [3] (setting [7]). For the same compound, the “Number of revertant colonies TA1537” value in data set [4] (with S9 mix, dose 2.3 μg/plate) amounted to 6; in data set [4] (with S9 mix, dose 6.9 μg/plate) it was 7; in data set [4] (with S9 mix, dose 21 μg/plate), 7; in data set [4] (with S9 mix, dose 62 μg/plate), 9; in data set [4] (with S9 mix, dose 185 μg/plate), 9; in data set [4] (with S9 mix, dose 556 μg/plate), 4. Also, the entries for the “Number of revertant colonies TA1537” value in data set [4] (setting [6]) and in data set [4] (setting [7]) were 4 and 5, respectively.
`CC(C)(OCc1cc(F)cc(-c2cc(N)nn2-c2ccc(F)cc2)c1)C(F)(F)F` [Metabolite D]: in data set [2], the “potential … TA98” value is listed as “showed potential to induce reverse mutations”. Also, the “Number of revertant colonies TA1535” value in data set [3] (S9 Mix +, 2.3 μg/plate) stood at 10; in data set [3] (S9 Mix +, 6.9 μg/plate), 15; in data set [3] (S9 Mix +, 21 μg/plate), 14; in data set [3] (S9 Mix +, 62 μg/plate), 11; in data set [3] (S9 Mix +, 185 μg/plate), 9; in data set [3] (S9 Mix +, 556 μg/plate), 7. Besides, the “Number of revertant colonies TA1535” value was 7 in data set [3] (S9 Mix +, 1667 μg/plate); 3 in data set [3] (S9 Mix +, 5000 μg/plate); 20 in data set [3] (S9 Mix −, 2.3 μg/plate); 21 in data set [3] (S9 Mix −, 6.9 μg/plate); 11 in data set [3] (S9 Mix −, 21 μg/plate); 6 in data set [3] (S9 Mix −, 62 μg/plate). Also, the “Number of revertant colonies TA1535” value in data set [3] (S9 Mix −, 185 μg/plate) amounted to 9; in data set [3] (S9 Mix −, 556 μg/plate) it was 5; in data set [3] (S9 Mix −, 1667 μg/plate) it was 6; in data set [3] (S9 Mix −, 5000 μg/plate), 7. Moreover, the “potential to induce reverse mutations, TA1537” value in data set [4] (with S9 mix) is on record as “showed potential to induce reverse mutations”.
`Nc1cc(-c2cccc(OC(F)(F)F)c2)n(-c2cccc(F)c2)n1` [Metabolite G]: the “potential … TA100” value in data set [5] is recorded as “showed potential to induce reverse mutations”. For the same compound, the “Number of revertant colonies WP2uvrA” value in data set [1] (2.3 μg/plate) was found to be 26; in data set [1] (6.9 μg/plate), 23; in data set [1] (21 μg/plate), 16; in data set [1] (62 μg/plate) it was 14; in data set [1] (185 μg/plate), 15; in data set [1] (556 μg/plate), 10. The “Number of revertant colonies WP2uvrA” value amounted to 17 in data set [1] (1667 μg/plate) and 6 in data set [1] (5000 μg/plate). For the same compound, the “Number of revertant colonies TA1535” value in data set [3] (S9 Mix +, 2.3 μg/plate) came out at 12; in data set [3] (S9 Mix +, 6.9 μg/plate) it was 14; in data set [3] (S9 Mix +, 21 μg/plate), 11; in data set [3] (S9 Mix +, 62 μg/plate), 8; in data set [3] (S9 Mix +, 185 μg/plate), 5; in data set [3] (S9 Mix +, 556 μg/plate), 5. Moreover, the “Number of revertant colonies TA1535” value in data set [3] (S9 Mix +, 1667 μg/plate) turned out to be 4; in data set [3] (S9 Mix +, 5000 μg/plate) it was 4; in data set [3] (S9 Mix −, 2.3 μg/plate), 15; in data set [3] (S9 Mix −, 6.9 μg/plate), 16; in data set [3] (S9 Mix −, 21 μg/plate) it was 21; in data set [3] (S9 Mix −, 62 μg/plate), 9. The “Number of revertant colonies TA1535” value in data set [3] (S9 Mix −, 185 μg/plate) came out at 9; in data set [3] (S9 Mix −, 556 μg/plate), 0; in data set [3] (S9 Mix −, 1667 μg/plate), 0; in data set [3] (S9 Mix −, 5000 μg/plate), 0. Further, the “potential to induce reverse mutations, TA1535” value in data set [3] (without S9 mix) is listed as “showed potential to induce reverse mutations”.
In the case of `Cc1cccc(-n2nc(N)cc2-c2cccc(OC(F)(F)F)c2)c1` [Metabolite H], the “potential … TA100” value in data set [5] is listed as “showed potential to induce reverse mutations”. The “potential … TA98” value in data set [2] was “showed potential to induce reverse mutations”. Further, the “Number of revertant colonies TA1535” value in data set [3] (S9 Mix +, 2.3 μg/plate) was 11; in data set [3] (S9 Mix +, 6.9 μg/plate), 14; in data set [3] (S9 Mix +, 21 μg/plate), 19; in data set [3] (S9 Mix +, 62 μg/plate), 15; in data set [3] (S9 Mix +, 185 μg/plate), 13; in data set [3] (S9 Mix +, 556 μg/plate) it was 6. In addition, the “Number of revertant colonies TA1535” value in data set [3] (S9 Mix +, 1667 μg/plate) was 3; in data set [3] (S9 Mix +, 5000 μg/plate), 3; in data set [3] (S9 Mix −, 2.3 μg/plate), 12; in data set [3] (S9 Mix −, 6.9 μg/plate), 17; in data set [3] (S9 Mix −, 21 μg/plate) it was 18; in data set [3] (S9 Mix −, 62 μg/plate) it was 14. Further, the “Number of revertant colonies TA1535” value in data set [3] (S9 Mix −, 185 μg/plate) was determined as 14; in data set [3] (S9 Mix −, 556 μg/plate), 6; in data set [3] (S9 Mix −, 1667 μg/plate), 6; in data set [3] (S9 Mix −, 5000 μg/plate), 4. In data set [4] (with S9 mix), the “potential to induce reverse mutations, TA1537” value is “showed potential to induce reverse mutations”.
